Results on three compounds are retold here after US9782483B2, “Sigma ligands for the prevention and/or treatment of emesis induced by chemotherapy or radiotherapy” (Laboratories Del Dr. Esteve, S.A., priority 2010, dated 2017).

In test [1] the test system is ferret (Mustela putorius furo). Put plainly: Antiemetic properties against cisplatin-induced emesis in the conscious, unrestrained ferret (telemetry). The test is classed as in vivo. Particulars: cisplatin 5 mg/kg i.p., 80 mg/kg i.p., multiple dose regimen (9 treatments). The method, then:
The antiemetic properties of compound 63 were assessed in combination with intraperitoneal administration of the chemotherapeutic agent cisplatin in the conscious, unrestrained ferret (Mustela putorius furo).
At least 12 days before their first treatment, ferrets were surgically implanted with telemetry devices. Individual body weights were recorded before treatment, at the time of telemetry device implantation, one day before the initiation of treatment and after completion of the treatment session, at the time of euthanasia, for each animal respectively.
The animals were treated according to the following schedule: […]
Body temperature, abdominal pressure and activity of the abdominal muscle (EMG) were recorded in treated animals, on day 0 and day 7, respectively, starting approximately 1 hour before the first administration of the vehicle and the test item and for at least 72 hours following the first administration of the vehicle and the test item. […]
2.7 Administration of Emetogenic Item • Route: Intraperitoneal. • Method of administration: Bolus injection using a sterile syringe and needle introduced intraperitoneally into the pelvic area. • Frequency: One administration for each animal, on day 0 or 7, one hour after the first treatment with the test item • Volume of administration: 5 mL/kg. • Individual dose volumes were calculated using the latest recorded body weight. […]

The conditions of test [2]: during Patient-Controlled Analgesia Therapy; Tramèr et al. 1999; cited from earlier work.

With `Cc1cc(OCCN2CCOCC2)nn1-c1ccc2ccccc2c1` [Compound 63, 4-{2-[5-Methyl-1-(naphthalen-2-yl)-1H-pyrazol-3-yloxy]ethyl}morpholine], in test [1] (delayed phase 18 to 72 hours, vs vehicle), the “number of emetic events during the delayed phase” value is “markedly decreased”. Also, the “maximum total number of emetic events (EE)” value in test [1] (delayed phase, between 62 and 63 hours) was 39 EE.
Regarding `CN1[C@@H]2CC[C@H]1C[C@@H](OC(=O)c1c[nH]c3ccccc13)C2` [tropisetron], the antinausea effect entry in test [2] is on record as “no evidence of any antinausea effect”.
With `Cc1nccn1CC1CCc2c(c3ccccc3n2C)C1=O` (stereo not shown) [ondasetron], the antinausea effect entry in test [2] is listed as “no evidence of any antinausea effect”.
